This is an account of results in US11236047B2 (ASTEX THERAPEUTICS LIMITED, priority 2017, dated 2022).

Each structure is given as a SMILES string.

One assay concerns SJSA-1 cells. Kind of assay: Protocol B: SJSA-1 CellTiter-Glo luminescent cell viability assay. To be noted: Homo sapiens, SJSA-1, read-out: SJSA1 IC50 (μM) (Protocol B), SJSA-1, Protocol B.
On to `CO[C@]1(c2ccc(Cl)cc2)c2c(F)cc(C(C)(O)c3ncc[nH]3)cc2C(=O)N1Cc1ccc(Cl)cn1` (single isomer, unassigned) [Example 163], for which the IC50 was 3.1 µM.

In another assay the test system is SN40R2 cells. Kind of assay: Protocol B: SN40R2 CellTiter-Glo luminescent cell viability assay. To be noted: read-out: SN40R2 % inhibition at 10. On the technique in general: In ATP-based viability assays light output follows the ATP content of the culture.
In the case of `CCC(O)(c1cc(F)c2c(c1)C(=O)N(Cc1ccc(C#N)cn1)[C@@]2(O[C@H]1CCOC1)c1ccc(Cl)cc1)c1ccn(C)c(=O)c1` (stereo partly drawn) [Example 374, 6-{[(1R)-1-(4-chlorophenyl)-7-fluoro-5-[1-hydroxy-1-(1-methyl-2-oxo-1,2-dihydropyridin-4-yl)propyl]-3-oxo-1-[(3S)-oxolan-3-yloxy]-2,3-dihydro-1H-isoindol-2-yl]methyl}pyridine-3-carbonitrile], the inhibition at 10 µM was 2%.

With `CC(O)(c1cc(F)c2c(c1)C(=O)N(Cc1ccc(C#N)cn1)[C@@]2(O[C@H]1CCOC1)c1ccc(Cl)cc1)C1(F)CCOCC1` (stereo partly drawn) [Example 388, 6-{[(1R)-1-(4-chlorophenyl)-7-fluoro-5-[1-(4-fluorooxan-4-yl)-1-hydroxyethyl]-3-oxo-1-[(3S)-oxolan-3-yloxy]-2,3-dihydro-1H-isoindol-2-yl]methyl}pyridine-3-carbonitrile], the inhibition at 10 µM came out at 4%.

On to `O=C1c2cc(C(O)C3CCS(=O)(=O)CC3)cc(F)c2[C@](OCC2(O)CC2)(c2ccc(Cl)cc2)N1Cc1ncc(Cl)cn1` (stereo partly drawn) [Example 399, 4-{[(1R)-1-(4-chlorophenyl)-2-[(5-chloropyrimidin-2-yl)methyl]-7-fluoro-1-[(1-hydroxycyclopropyl)methoxy]-3-oxo-2,3-dihydro-1H-isoindol-5-yl](hydroxy)methyl}-1λ6-thiane-1,1-dione], for which the inhibition at 10 µM stood at 2%.

Regarding `CCC(O)(c1cc(F)c2c(c1)C(=O)N(Cc1ccc(C#N)cn1)[C@@]2(O[C@@H]1CCOC1)c1ccc(Cl)cc1)c1cn(C)cn1` (stereo partly drawn) [Example 426, 6-{[(1R)-1-(4-chlorophenyl)-7-fluoro-5-[1-hydroxy-1-(1-methyl-1H-imidazol-4-yl)propyl]-3-oxo-1-[(3R)-oxolan-3-yloxy]-2,3-dihydro-1H-isoindol-2-yl]methyl}pyridine-3-carbonitrile], the inhibition at 10 µM amounted to 4%.

On to `Cn1cnc(C(O)(c2cc(F)c3c(c2)C(=O)N(Cc2ccc(C#N)cn2)[C@@]3(O[C@H]2CCOC2)c2ccc(Cl)cc2)C2CC2)c1` (stereo partly drawn) [Example 434, 6-{[(1R)-1-(4-chlorophenyl)-5-[cyclopropyl(hydroxy)(1-methyl-1H-imidazol-4-yl)methyl]-7-fluoro-3-oxo-1-[(3S)-oxolan-3-yloxy]-2,3-dihydro-1H-isoindol-2-yl]methyl}pyridine-3-carbonitrile], for which the inhibition at 10 µM was 7%.

Turning to `CCC(O)(c1cc(F)c2c(c1)C(=O)N(Cc1ccc(C#N)cn1)[C@@]2(O[C@H]1CCOC1)c1ccc(Cl)cc1)C1(F)CCOCC1` (stereo partly drawn) [Example 445, 6-{[(1R)-1-(4-chlorophenyl)-7-fluoro-5-[1-(4-fluorooxan-4-yl)-1-hydroxypropyl]-3-oxo-1-[(3S)-oxolan-3-yloxy]-2,3-dihydro-1H-isoindol-2-yl]methyl}pyridine-3-carbonitrile], the inhibition at 10 µM amounted to 16%.

With `CCC(O)(c1cc(F)c2c(c1)C(=O)N(Cc1ncc(Cl)cn1)[C@@]2(OC)c1ccc(Cl)cc1)C1CCNCC1` (stereo partly drawn) [Example 450, (3R)-3-(4-chlorophenyl)-2-[(5-chloropyrimidin-2-yl)methyl]-4-fluoro-6-[1-hydroxy-1-(piperidin-4-yl)propyl]-3-methoxy-2,3-dihydro-1H-isoindol-1-one], the inhibition at 10 µM was 15%.

For `CCC(O)(c1cc(F)c2c(c1)C(=O)N(Cc1ncc(C#N)cn1)[C@@]2(OC1CCC(O)C1)c1ccc(Cl)cc1)c1cn(C)cn1` (stereo partly drawn) [Example 461, 2-{[(1R)-1-(4-chlorophenyl)-7-fluoro-5-[1-hydroxy-1-(1-methyl-1H-imidazol-4-yl)propyl]-1-[(trans-3-hydroxycyclopentyl)oxy]-3-oxo-2,3-dihydro-1H-isoindol-2-yl]methyl}pyrimidine-5-carbonitrile], the inhibition at 10 µM worked out at 6%.

`C=C(CO)CO[C@]1(c2ccc(Cl)cc2)c2c(F)cc(C(O)(CC)c3cn(C)cn3)cc2C(=O)N1Cc1ccc(C#N)cn1` (stereo partly drawn) [Example 466, 6-{[(1R)-1-(4-chlorophenyl)-7-fluoro-5-[1-hydroxy-1-(1-methyl-1H-imidazol-4-yl)propyl]-1-(3-hydroxy-2-methylidenepropoxy)-3-oxo-2,3-dihydro-1H-isoindol-2-yl]methyl}pyridine-3-carbonitrile]: the inhibition at 10 µM was 4%.

With `CC(O)(c1cc(F)c2c(c1)C(=O)N(Cc1ncc(Cl)cn1)[C@@]2(O[C@H]1CCOC1)c1ccc(Cl)cc1)C1(F)CCOCC1` (stereo partly drawn) [Example 493, (3R)-3-(4-chlorophenyl)-2-[(5-chloropyrimidin-2-yl)methyl]-4-fluoro-6-[1-(4-fluorooxan-4-yl)-1-hydroxyethyl]-3-[(3S)-oxolan-3-yloxy]-2,3-dihydro-1H-isoindol-1-one], the inhibition at 10 µM was found to be 11%.

As for `CC[C@](O)(c1cc(F)c2c(c1)C(=O)N(Cc1ncc(Cl)cn1)[C@@]2(OCCO)c1ccc(Cl)cc1)C1(F)CCOCC1` [Example 502, (3R)-3-(4-chlorophenyl)-2-[(5-chloropyrimidin-2-yl)methyl]-4-fluoro-6-[(1S)-1-(4-fluorooxan-4-yl)-1-hydroxypropyl]-3-(2-hydroxyethoxy)-2,3-dihydro-1H-isoindol-1-one], the inhibition at 10 µM was found to be 11%.

As to `CC[C@@](O)(c1cc(F)c2c(c1)C(=O)N(Cc1ccc(C)nc1C(=O)O)[C@@]2(OC)c1ccc(Cl)cc1)C1(F)CCOCC1` [Example 515, 3-{[(1R)-1-(4-chlorophenyl)-7-fluoro-5-[(1R)-1-(4-fluorooxan-4-yl)-1-hydroxypropyl]-1-methoxy-3-oxo-2,3-dihydro-1H-isoindol-2-yl]methyl}-6-methylpyridine-2-carboxylic acid], the inhibition at 10 µM amounted to 8%.

Turning to `[2H]C([2H])(c1ncc(Cl)cn1)N1C(=O)c2cc(C(C)(O)C3(F)CCOCC3)cc(F)c2[C@]1(O[C@H]1CCOC1)c1ccc(Cl)cc1` (stereo partly drawn) [Example 516, (3R)-3-(4-chlorophenyl)-2-[(5-chloropyrimidin-2-yl)dideuteromethyl]-4-fluoro-6-[1-(4-fluorooxan-4-yl)-1-hydroxyethyl]-3-[(3S)-oxolan-3-yloxy]-2,3-dihydro-1H-isoindol-1-one], the inhibition at 10 µM worked out at 4%.

Take `CCC(O)(CN(C)C)c1cc(F)c2c(c1)C(=O)N(Cc1ncc(Cl)cn1)[C@@]2(O[C@H]1CCOC1)c1ccc(Cl)cc1` (stereo partly drawn) [Example 528, (3R)-3-(4-chlorophenyl)-2-[(5-chloropyrimidin-2-yl)methyl]-6-[1-(dimethylamino)-2-hydroxybutan-2-yl]-4-fluoro-3-[(3S)-oxolan-3-yloxy]-2,3-dihydro-1H-isoindol-1-one]: the inhibition at 10 µM was 10%.

Regarding `CC[C@@](O)(c1cc(F)c2c(c1)C(=O)N(Cc1ncc(Cl)cn1)[C@@]2(OC)c1ccc(Cl)cc1)C1CCN(C)CC1` [Example 553, (3R)-3-(4-chlorophenyl)-2-[(5-chloropyrimidin-2-yl)methyl]-4-fluoro-6-[(1S)-1-hydroxy-1-(1-methylpiperidin-4-yl)propyl]-3-methoxy-2,3-dihydro-1H-isoindol-1-one], the inhibition at 10 µM was found to be 24%.

For `CC[C@@](O)(c1cc(F)c2c(c1)C(=O)N(Cc1ncc(Cl)cn1)[C@@]2(OCCO)c1ccc(Cl)cc1)C1CCN(C)CC1` [Example 559, (3R)-3-(4-chlorophenyl)-2-[(5-chloropyrimidin-2-yl)methyl]-4-fluoro-6-[(1S)-1-hydroxy-1-(1-methylpiperidin-4-yl)propyl]-3-(2-hydroxyethoxy)-2,3-dihydro-1H-isoindol-1-one], the inhibition at 10 µM was 1%.

With `CC[C@@](O)(c1cc(F)c2c(c1)C(=O)N(Cc1ncc(Cl)cn1)[C@@]2(OC[C@@H](C)O)c1ccc(Cl)cc1)C1CCN(C)CC1` [Example 562, (3R)-3-(4-chlorophenyl)-2-[(5-chloropyrimidin-2-yl)methyl]-4-fluoro-6-[(1S)-1-hydroxy-1-(1-methylpiperidin-4-yl)propyl]-3-[(2R)-2-hydroxypropoxy]-2,3-dihydro-1H-isoindol-1-one], the inhibition at 10 µM turned out to be 1%.

As for `CC[C@](O)(c1cc(F)c2c(c1)C(=O)N(Cc1ncc(Cl)cn1)[C@@]2(OC)c1ccc(Cl)cc1)C1CCN(C)CC1` [Example 566, (3R)-3-(4-chlorophenyl)-2-[(5-chloropyrimidin-2-yl)methyl]-4-fluoro-6-[(1R)-1-hydroxy-1-(1-methylpiperidin-4-yl)propyl]-3-methoxy-2,3-dihydro-1H-isoindol-1-one], the inhibition at 10 µM turned out to be 46%.

Take `CC(O)(c1cc(F)c2c(c1)C(=O)N(Cc1ccc(C#N)cn1)[C@@]2(OC[C@H](O)CF)c1ccc(Cl)cc1)C1(F)CCOCC1` (stereo partly drawn) [Example 579, 6-{[(1R)-1-(4-chlorophenyl)-7-fluoro-1-[(2S)-3-fluoro-2-hydroxypropoxy]-5-[1-(4-fluorooxan-4-yl)-1-hydroxyethyl]-3-oxo-2,3-dihydro-1H-isoindol-2-yl]methyl}pyridine-3-carbonitrile]: the inhibition at 10 µM was 4%.

The assay is the same for the next values; noted with them: read-out: SN40R2 % inhibition at 10, Protocol B, SN40R2, at 10 μM.
As for `[2H]C([2H])(O)C([2H])([2H])O[C@]1(c2ccc(Cl)cc2)c2c(F)cc(C(O)(CC)C3(F)CCN(C)CC3)cc2C(=O)N1Cc1ncc(Cl)cn1` (stereo partly drawn) [Example 580, (3R)-3-(4-chlorophenyl)-2-[(5-chloropyrimidin-2-yl)methyl]-4-fluoro-6-[1-(4-fluoro-1-methylpiperidin-4-yl)-1-hydroxypropyl]-3-[2-hydroxy(1,1,2,2-tetradeutero)ethoxy]-2,3-dihydro-1H-isoindol-1-one], the inhibition at 10 µM stood at 13%.

Still in this assay, the particulars now being: read-out: SN40R2 % inhibition at 30.
Turning to `Cn1cnc(C(O)(c2cc(F)c3c(c2)C(=O)N(Cc2ccc(C#N)cn2)[C@@]3(O[C@H]2CCOC2)c2ccc(Cl)cc2)C2CC2)c1` (stereo partly drawn) [Example 433, 6-{[(1R)-1-(4-chlorophenyl)-5-[cyclopropyl(hydroxy)(1-methyl-1H-imidazol-4-yl)methyl]-7-fluoro-3-oxo-1-[(3S)-oxolan-3-yloxy]-2,3-dihydro-1H-isoindol-2-yl]methyl}pyridine-3-carbonitrile], the inhibition at 30 µM came out at 20%.

The assay is the same for the next values; noted with them: read-out: SN40R2 IC50 (μM) (Protocol B).
Consider `CO[C@]1(c2ccc(Cl)cc2)c2c(F)cc(C(C)(O)c3ncc[nH]3)cc2C(=O)N1Cc1ccc(Cl)cn1` (single isomer, unassigned) [Example 163], for which the half-maximal inhibitory concentration (IC50) is 13 µM.

One may read the IC50 as the point on the concentration scale where inhibition reaches its midpoint. For orientation: inhibition means the drop in the measured response relative to a control, in per cent.
